The values that follow come from paper PMC9694777, “Fractionation and Extraction Optimization of Potentially Valuable Compounds and Their Profiling in Six Varieties of Two Nicotiana Species” (Molecules, 2022).

The nature of the data set: physchem. The settings on record: for solubility: 22 °C, thermodynamic from solid. An excerpt: Determination of the small molecule content in a complex plant matrix depends on the understanding of minimum solubility in the chosen extraction solvent. […] Often, tests on mixture are hardly reproducible on pure compounds if this aspect is not routinely considered in the workflow. We performed a general testing of best solvent systems to compare a wide range of small molecules of interest to understand the limitations of general approaches within a complex plant matrix such as Nicotiana.
For each of the 29 reference compounds, 2 mg was weighed into a 15 mL glass tube and dissolved in the minimum amount of the test solvent by gradually adding the solvent with a micropipette until complete dissolution or to a final volume of 10.0 mL. Seven solvents with polarities from nonpolar to polar were chosen for the test: hexane (C6H14), CH2Cl2, CH2Cl2/MeOH (4:1, v/v), EtOH, MeOH, MeOH/H2O (7:3, v/v), and H2O. The consumed solvents and their volumes were recorded for each reference compound.

Setting [1] is: organic solvent or mixture, Solubility in C6H14.
Where [2] appears, read: organic solvent or mixture, Solubility in CH2Cl2.
The mark [3] stands for this setting: organic solvent or mixture, Solubility in EtOH.
The mark [4] stands for this setting: organic solvent or mixture, Solubility in MeOH.
Where [5] appears, read: organic solvent or mixture, Solubility in MeOH/H2O (7:3).
Where [6] appears, read: solvent CH2Cl2/MeOH (4:1, v/v), room temperature (21–23 °C).
Setting [7] is: solvent MeOH/H2O (7:3, v/v), room temperature (21–23 °C).
[8] abbreviates: solvent water, room temperature (21–23 °C).

Values after ≈ are worked out from the molar mass of the structure shown.

For orientation: solubility means how much of the substance goes into solution per volume. Consider `C=C1CC[C@H](O)C/C1=C/C=C1\CCC[C@]2(C)[C@@H]([C@H](C)CCCC(C)C)CC[C@@H]12` [Vitamin D3], for which the solubility reads like this: under setting [1], 104000 µg/mL (≈ 270 mM); under setting [2], 100000 µg/mL (≈ 260 mM); (organic solvent or mixture, Solubility in CH2Cl2/MeOH (4:1)) 212000 µg/mL (≈ 551 mM); under setting [3], 74300 µg/mL (≈ 193 mM); under setting [4], 113000 µg/mL (≈ 294 mM); under setting [5], under 190 µg/mL. For the same molecule, the solubility (water, Solubility in H2O) was under 190 µg/mL.

As for `C/C(=C\CNc1ncnc2[nH]cnc12)CO` [Zeatin], the solubility was under 190 µg/mL under setting [1]; under 190 µg/mL under setting [2]; 560 µg/mL (≈ 2.55 mM) under setting [3]; 2280 µg/mL (≈ 10.4 mM) under setting [4]; 3030 µg/mL (≈ 13.8 mM) under setting [5]; under 190 µg/mL (water, Solubility in H2O).

For the molecule `CC1=C(/C=C/C(C)=C/C=C/C(C)=C/C=C/C=C(C)/C=C/C=C(C)/C=C/C2=C(C)C[C@@H](O)CC2(C)C)C(C)(C)C[C@H](O)C1` [Zeaxanthin], the solubility (organic solvent or mixture, Solubility in C6H14, solvent hexane (C6H14), room temperature (21–23 °C), 2 mg compound, solvent added until dissolution or 10.0 mL) was under 190 µg/mL; the solubility (organic solvent or mixture, Solubility in CH2Cl2, solvent dichloromethane (CH2Cl2), room temperature (21–23 °C)) stood at 290 µg/mL (≈ 0.51 mM); the solubility (organic solvent or mixture, Solubility in EtOH, solvent ethanol, room temperature (21–23 °C)) is under 190 µg/mL; the solubility (organic solvent or mixture, Solubility in MeOH, solvent methanol, room temperature (21–23 °C)) is under 190 µg/mL; the solubility (organic solvent or mixture, Solubility in MeOH/H2O (7:3), solvent MeOH/H2O (7:3, v/v), room temperature (21–23 °C)) is under 190 µg/mL; the solubility (water, Solubility in H2O, solvent water, room temperature (21–23 °C)) was under 190 µg/mL. For the same molecule, the “Solubility in CH2Cl2/MeOH (4:1)” value reads like this: under setting [6], 490 µg/mL (≈ 0.861 mM); (solvent CH2Cl2/MeOH (4:1, v/v), room temperature (21–23 °C), listed as zeaxanthin) under 100000 µg/mL.

As to Megastigmatrienone, under setting [6], the “Solubility in CH2Cl2/MeOH (4:1)” value worked out at 212000 µg/mL. For the same molecule, the “Solubility in MeOH/H2O (7:3)” value under setting [7] is 38800 µg/mL. For the same molecule, under “solvent dichloromethane (CH2Cl2), room temperature (21–23 °C)”, the “Solubility in CH2Cl2” value stood at 215000 µg/mL. Also, the “Solubility in EtOH” value (solvent ethanol, room temperature (21–23 °C)) stood at 197000 µg/mL. The “Solubility in C6H14” value (solvent hexane (C6H14), room temperature (21–23 °C), 2 mg compound, solvent added until dissolution or 10.0 mL) is 1100 µg/mL. The “Solubility in MeOH” value (solvent methanol, room temperature (21–23 °C)) is 228000 µg/mL. The “Solubility in H2O” value under setting [8] is “NS (not soluble, insoluble in the solvent at the tested concentration range (0.19–558 mg/mL))”.

On to Phytol, for which the “Solubility in MeOH/H2O (7:3)” value under setting [7] is 320 µg/mL. Besides, the “Solubility in H2O” value under setting [8] is “NS (not soluble, insoluble in the solvent at the tested concentration range (0.19–558 mg/mL))”.

As for Vitamin E, the “Solubility in C6H14” value was 215000 µg/mL, the “Solubility in CH2Cl2” value came to 208000 µg/mL, the “Solubility in CH2Cl2/MeOH (4:1)” value came out at 241000 µg/mL and the “Solubility in EtOH” value was 43000 µg/mL. The “Solubility in H2O” value was “NS (key: NS: not soluble, insoluble in the solvent at the tested concentration range (0.19–558 mg/mL))”; the “Solubility in MeOH” value stood at 31200 µg/mL; the “Solubility in MeOH/H2O (7:3)” value turned out to be 230 µg/mL.
